Laboratory results taken from patent US20240300945A1, “CLY SERIES COMPOUND, PREPARATION METHOD THEREFOR AND USE THEREOF IN PREPARATION OF DRUGS” (NANJING WELLBEST PHARMACEUTICAL CO., LTD, priority 2021, published 2024).
Marks after values point to notes of the source that are not given here.

Tests used:
mouse hair loss model = experiment: Mouse hair loss (androgenic alopecia) model: hair length; format: in vivo, C57BL/6 mice; conditions: mouse AGA model; external 2% tincture twice a day
From the text: (1) Preparation method of tincture of compounds CLY-1, CLY-2, CLY-3, CLY-4, CLY-8, CLY-11, CLY-19, CLY-36, and CLY-39: 60% ethanol was mixed with the above compounds to prepare a tincture of 2% concentration.
(2) Positive treatment drug: 2% minoxidil tincture (produced by the Institute of Dermatology, Chinese Academy of Medical Sciences)
The experimental mice were divided into the negative control group (external use of 60% ethanol), model group (external use of 60% ethanol), positive control group (external use of 2% minoxidil tincture), CLY-1 external treatment group (external use of 2% CLY-1 tincture), CLY-2 external treatment group (external use of 2% CLY-2 tincture), CLY-3 external treatment group (external use of 2% CLY-3 tincture), CLY-4 external treatment group (external use of 2% CLY-4 tincture), CLY-8 external treatment group (external use of 2% CLY-8 tincture) CLY-11 external treatment group (2% CLY-11 tincture), CLY-19 external treatment group (2% CLY-19 tincture), CLY-36 external treatment group (2% CLY-36 tincture), and CLY-39 external treatment group (2% CLY-39 tincture). There were 6 animals in each group, half male and half female. An area of 4 cm×5 cm from the back of experimental mice with hair removed was selected, and the hair removal area was painted yellow with 3% picric acid solution to determine the observation area of the hair removal experiment. In addition to the negative control group, mice in other groups were injected subcutaneously with testosterone propionate injection [8 ml/(kg·d)] at the back of the neck, once a day, for 60 consecutive days, to establish the model of androgenic alopecia (AGA). At the same time of modeling, the rats in the corresponding drug group were smeared with drugs on the observation area of the back at the rate of 1 ml/(piece·time), twice a day, with an interval of 2 hours. The normal control group and the model control group were smeared with the excipient (60% ethanol solution), 1 ml/(one time), twice a day, for 60 consecutive days.
10 hairs were extracted from the observation area on the back of each mouse every 15 days after administration, and the hair length was measured with a vernier caliper. After 60 days of administration, the skin of the experimental observation area was taken for routine tissue dehydration, paraffin embedding, HE staining, and light microscopy to observe the histopathological changes of mouse skin hair follicles and sebaceous glands. Semi-quantitative analysis was performed for each group. The grading criteria are as follows: the normal structure of dermal tissue cells, subcutaneous hair follicles, and sebaceous glands is marked as […]: no hyperplasia of dermal tissue is found, the lesions of hair follicles and sebaceous glands are limited, and no inflammation is found under the skin is marked as “+”: no obvious hyperplasia of dermal tissue is found, and the follicles are obviously cystic. No obvious hyperplasia of sebaceous glands is found, and no inflammation is found under the skin is marked as “+”: the dermal tissue has segmental hyperplasia, which is not obvious, A small number of hair follicles have cystic changes, and the sebaceous glands have mild hyperplasia and hypertrophy. There is no obvious inflammation under the skin, which is marked as “++”: the dermal tissue cells of the skin have different degrees of segmental hyperplasia, and some hair follicles have cystic changes, showing uneven size of hair follicles, and no cells around. The sebaceous glands have hyperplasia, and the nuclei in the proliferative glands are few. A few subcutaneous mild inflammatory hyperplasia is marked as “+++”.

skin melanocytes = experiment: Chloasma model of guinea pig: pathomorphological observation of skin melanocytes; format: in vivo; design: Average gray level (melanocyte depth): scale not given here; conditions: 0.25% cream once a day, 30 days
From the text: According to the body weight, they were randomly divided into the model control group (applied cream matrix), blank control group (applied cream matrix), CLY-1 treatment group (applied 0.25% CLY-1 cream on the skin), CLY-2 treatment group (0.25% CLY-2 cream on the skin), CLY-3 treatment group (0.25% CLY-3 cream on the skin), CLY-4 treatment group (0.25% CLY-4 cream on the skin), CLY-5 treatment group (0.25% CLY-5 cream on the skin) CLY-8 treatment group (0.25% CLY-8 cream on the skin), CLY-11 treatment group (0.25% CLY-11 cream on the skin), CLY-19 treatment group (0.25% CLY-19 cream on the skin), CLY-36 treatment group (0.25% CLY-36 cream on the skin), CLY-39 treatment group (0.25% CLY-39 cream on the skin), positive treatment group (0.25% arbutin cream on the skin), 6 in each group. In addition to the blank control group, all guinea pigs in the other groups were injected with 20 mg/ml progesterone injection (7.5 mg/kg) into the muscle at the root of the hind leg, once a day, for 30 consecutive days to establish the chloasma model. […] After modeling, the guinea pigs in the model control group, blank control group, each CLY series treatment group, and positive treatment group were treated with corresponding cream on the back for intervention, once a day, for 30 consecutive days.
Took 1 piece of spare skin tissue from each of all guinea pigs, about 2 cm×1 cm, 10% paraformaldehyde fixation, pathological tissue detection, immunohistochemical staining, observation of melanocyte staining and number, and judgment of positive cells according to the literature: none, 0 point<15%, 0.5 points<30%, 1 point; >30%, 2 points. Observed 5 visual fields in each slice, found out the positive target with brown reaction in the cytoplasm of skin epidermis and accessory epithelial cells, and used BX50F4 Beihang pathological image analysis system for quantitative analysis to obtain the average area, the ratio of target area to statistical field area (areal density), the ratio of target number to statistical field area (number density), the average gray level, the average optical density and the integrated optical density of each guinea pig's 5 visual fields of melanin positive target.
SPSS16.0 software was used for statistics. The measurement data were expressed by mean±standard deviation (x±s). The comparison between multiple groups was performed by one-way ANOVA, and the comparison between groups was performed by t-test. P<0.05 was statistically significant.

Row | Compound | 15-day hair length (mouse hair loss model) | 30-day hair length (mouse hair loss model) | 45-day hair length (mouse hair loss model) | 60-day hair length (mouse hair loss model) | Area density of melanocytes (skin melanocytes) | Area of melanocytes (skin melanocytes) [um2] | Average gray level (melanocyte depth) (skin melanocytes) | Average optical density (melanocyte depth) (skin melanocytes) | Integrated optical density (melanocyte depth) (skin melanocytes) | Number density of melanocytes (skin melanocytes) | Number of melanocytes (skin melanocytes)
1 | O=C(c1ccc(-n2nnc3cccnc32)cc1)N(c1ncccc1Cl)C1CCCC(O)C1 (centres unmarked) [CLY-4] | 0.641* cm | 0.837* cm | 0.841* cm | 0.939* cm | 0.009 ± 0.003 | 496.56 ± 86.23 | 0.58 ± 0.09 | 11.61 ± 1.38 | 92.45 ± 9.36 | 2.95 ± 1.41 | 2.45 ± 0.67
2 | CCN1CCC[C@@H](N(C(=O)c2ccc(-n3nnc4cccnc43)cc2)c2ncccc2Cl)C1 [CLY-2, (R)-4-(3H-[1,2,3]triazolo[4,5-b]pyridin-3-yl)-N-(3-chloropyridin-2-yl)-N-(1-ethylpiperidin-3-yl)benzamide] | 0.676* cm | 0.865* cm | 0.869* cm | 0.962* cm | 0.004 ± 0.002 | 366.26 ± 62.15 | 0.41 ± 0.06 | 10.68 ± 1.18 | 106.96 ± 9.84 | 1.88 ± 1.34 | 1.75 ± 0.53
3 | CN1CCC[C@@H](N(C(=O)c2ccc(-n3nnc4cccnc43)cc2)c2ncccc2Cl)C1 [CLY-1, (R)-4-(3H-[1,2,3]triazolo[4,5-b]pyridin-3-yl)-N-(3-chloropyridin-2-yl)-N-(1-methylpiperidin-3-yl)benzamide] | 0.653* cm | 0.851* cm | 0.858* cm | 0.951* cm | 0.005 ± 0.002 | 372.31 ± 58.32 | 0.43 ± 0.07 | 11.23 ± 1.21 | 103.34 ± 9.71 | 1.91 ± 0.96 | 1.93 ± 0.55
4 | Nc1cc(N2CCCCC2)nc(N)[n+]1[O-] [Positive control group, minoxidil, reference compound] | 0.591* cm | 0.814* cm | 0.825 cm | 0.842* cm | – | – | – | – | – | – | –
5 | O=C(c1ccc(-c2ccccc2Cl)cc1)N(c1ncccc1Cl)[C@@H]1CCCNC1 [CLY-36] | 0.628* cm | 0.824* cm | 0.823* cm | 0.919* cm | 0.007 ± 0.004 | 495.32 ± 79.43 | 0.47 ± 0.07 | 11.53 ± 1.22 | 97.62 ± 9.91 | 2.67 ± 1.38 | 1.98 ± 0.59
6 | CNC1CCCC(N(C(=O)c2ccc(-n3nnc4cccnc43)cc2)c2ncccc2Cl)C1 (centres unmarked) [CLY-3] | 0.646* cm | 0.843* cm | 0.847* cm | 0.946* cm | 0.008 ± 0.003 | 436.32 ± 79.12 | 0.52 ± 0.08 | 11.42 ± 1.32 | 95.36 ± 9.86 | 2.82 ± 1.25 | 2.13 ± 0.61
7 | Nc1ccccc1-c1ccc(C(=O)N(c2ncccc2Cl)[C@@H]2CCCNC2)cc1 [CLY-39] | 0.665* cm | 0.845* cm | 0.867* cm | 0.956* cm | 0.006 ± 0.003 | 458.06 ± 76.32 | 0.47 ± 0.07 | 11.06 ± 1.17 | 101.36 ± 9.72 | 2.03 ± 1.24 | 1.39 ± 0.32
8 | COC1CCCC(N(C(=O)c2ccc(-n3nnc4cccnc43)cc2)c2ncccc2Cl)C1 (centres unmarked) [CLY-5] | – | – | – | – | 0.004 ± 0.001 | 345.31 ± 56.21 | 0.40 ± 0.05 | 10.59 ± 1.13 | 107.06 ± 9.57 | 1.75 ± 1.29 | 1.43 ± 0.32
9 | O=C(c1ccc(-c2ccccc2-c2nnn[nH]2)cc1)N(c1ncccc1Cl)[C@@H]1CCCNC1 [CLY-19] | 0.623* cm | 0.826* cm | 0.828* cm | 0.915* cm | 0.006 ± 0.003 | 405.62 ± 73.45 | 0.45 ± 0.06 | 11.28 ± 1.24 | 102.65 ± 9.97 | 2.18 ± 1.35 | 1.95 ± 0.52
10 | O=C(c1ccc(-n2nnc3cccnc32)cc1)N(c1ncccc1Cl)[C@@H]1CCNC1 [CLY-8, (R)-4-(3H-[1,2,3]triazolo[4,5-b]pyridin-3-yl)-N-(3-chloropyridin-2-yl)-N-(pyrrolidin-3-yl)benzamide] | 0.682 * cm | 0.872* cm | 0.886* cm | 0.971* cm | 0.003 ± 0.001 | 341.26 ± 54.82 | 0.39 ± 0.04 | 10.48 ± 1.11 | 103.15 ± 9.52 | 1.71 ± 1.26 | 1.36 ± 0.29
11 | NC1CCCC(N(C(=O)c2ccc(-n3nnc4cccnc43)cc2)c2ncccc2Cl)C1 (centres unmarked) [CLY-11] | 0.637* cm | 0.831* cm | 0.834* cm | 0.932* cm | 0.006 ± 0.002 | 417.53 ± 73.16 | 0.46 ± 0.06 | 11.26 ± 1.22 | 101.38 ± 9.92 | 2.16 ± 1.38 | 1.98 ± 0.56
